From patent US8916711B2, “Imidazothiazole-chalcone derivatives as potential anticancer agents and process for the preparation thereof” (Council of Scientific and Industrial Research, priority 2009, dated 2014)
Where two headings read alike, the source gives them in different places.

Columns and labels:
Assay type in all cases: cell-based
CCRF-CEM = assay: NCI in vitro cytotoxicity (SRB, 48 h), Leukemia panel; details: Homo sapiens, 48 h exposure
HT29 = assay: NCI in vitro cytotoxicity (SRB, 48 h), Colon panel; details: Homo sapiens, HT-29, 48 h exposure
OVCAR-4 = assay: NCI in vitro cytotoxicity (SRB, 48 h), Ovarian panel; details: Homo sapiens; OVCAR-4, Ovarian; 48 h exposure
HOP-92 = assay: NCI in vitro cytotoxicity (SRB, 48 h), Non-small cell lung panel; details: Homo sapiens
KM12 = assay: NCI in vitro cytotoxicity (SRB, 48 h), Colon panel; details: Homo sapiens, 48 h exposure
A549/ATCC = assay: NCI in vitro cytotoxicity (SRB, 48 h), Non-small cell lung panel; details: Homo sapiens, 48 h exposure
CAKI-1 = assay: NCI in vitro cytotoxicity (SRB, 48 h), Renal panel; details: Homo sapiens
U251 = assay: NCI in vitro cytotoxicity (SRB, 48 h), CNS panel; details: Homo sapiens, U-251, 48 h exposure
NCI-H322M = assay: NCI in vitro cytotoxicity (SRB, 48 h), Non-small cell lung panel; details: Homo sapiens, 48 h exposure
Leukemia cell lines = assay: NCI in vitro cytotoxicity, whole panel; details: Homo sapiens
MOLT-4 = assay: NCI in vitro cytotoxicity (SRB, 48 h), Leukemia panel; details: Homo sapiens; MOLT-4, Leukemia; 48 h exposure
SF-295 = assay: NCI in vitro cytotoxicity (SRB, 48 h), CNS panel; details: Homo sapiens; SF-295, CNS; 48 h exposure
SF-268 = assay: NCI in vitro cytotoxicity (SRB, 48 h), CNS panel; details: Homo sapiens; SF-268, CNS; 48 h exposure
[1] = test system: sixty human tumour cell lines; assay: NCI in vitro cytotoxicity, all panels
MDA-MB-468 = assay: NCI in vitro cytotoxicity (SRB, 48 h), Breast panel; details: Homo sapiens; MDA-MB-468, Breast; 48 h exposure
NCI-H226 = assay: NCI in vitro cytotoxicity (SRB, 48 h), Non-small cell lung panel; details: Homo sapiens, 48 h exposure
MALME-3M = assay: NCI in vitro cytotoxicity (SRB, 48 h), Melanoma panel; details: Homo sapiens, 48 h exposure
SK-MEL-28 = assay: as above; details: Homo sapiens; SK-MEL-28, Melanoma; 48 h exposure
UO-31 = assay: NCI in vitro cytotoxicity (SRB, 48 h), Renal panel; details: Homo sapiens; UO-31, Renal; 48 h exposure
Breast cancer cell lines = assay: NCI in vitro cytotoxicity, whole panel; details: Homo sapiens
IGROV1 = assay: NCI in vitro cytotoxicity (SRB, 48 h), Ovarian panel; details: Homo sapiens, IGROV-1
SN12C = assay: NCI in vitro cytotoxicity (SRB, 48 h), Renal panel; details: Homo sapiens, 48 h exposure
UACC-62 = assay: NCI in vitro cytotoxicity (SRB, 48 h), Melanoma panel; details: Homo sapiens; UACC-62, Melanoma; 48 h exposure
MCF7 = assay: NCI in vitro cytotoxicity (SRB, 48 h), Breast panel; details: Homo sapiens
Procedure: (§1) The imidazothiazole-chalcone hybrids 7a, 7e, 7f, 8f and 19e have been tested against sixty human tumour cell lines derived from nine cancer types (leukemia, non-small cell lung cancer, colon cancer, CNS cancer, melanoma, ovarian cancer, renal cancer, prostate cancer and breast cancer) as per NCI protocol. For each compound, dose response curves for individual cell lines have been measured at a minimum of five concentrations at 10 fold dilutions. A protocol of 48 h continuous drug exposure has been used, and a sulforhodamine B (SRB) protein assay was used to estimate cell viability or growth. The concentration for 50% cell growth inhibition (GI50), total cell growth inhibition (TGI, 0% growth) and 50% cell death (LC50, […]) compared with the control has been calculated (Table-1).

MDA-MB-231/ATCC = assay: as above; details: Homo sapiens
Procedure: as §1

HCT-116 = assay: NCI in vitro cytotoxicity (SRB, 48 h), Colon panel; details: Homo sapiens
[2] = test system: Ovarian cancer cell lines; assay: NCI in vitro cytotoxicity, whole panel; details: Homo sapiens
BT-549 = assay: NCI in vitro cytotoxicity (SRB, 48 h), Breast panel; details: Homo sapiens; BT-549, Breast; 48 h exposure
NCI-H522 = assay: NCI in vitro cytotoxicity (SRB, 48 h), Non-small cell lung panel; details: Homo sapiens, 48 h exposure
SF-539 = assay: NCI in vitro cytotoxicity (SRB, 48 h), CNS panel; details: Homo sapiens; SF-539, CNS; 48 h exposure
MDAMB-435 = assay: NCI in vitro cytotoxicity (SRB, 48 h), Melanoma panel; details: Homo sapiens, MDA-MB-435; MDAMB-435, Melanoma; 48 h exposure
HCT-15 = assay: NCI in vitro cytotoxicity (SRB, 48 h), Colon panel; details: Homo sapiens; HCT-15, Colon; 48 h exposure

SMILES: COc1ccc(-c2nc3sccn3c2/C=C/C(=O)c2cc(OC)c(OC)c(OC)c2)cc1 [Compound 7a, (E)-3-(6-(4-methoxyphenyl)imidazo[2,1-b]thiazol-5-yl)-1-(3,4,5-trimethoxyphenyl) prop-2-en-1-one]
- GI50 (CCRF-CEM): 3080 nM
- GI50 (HT29): 3120 nM
- GI50 (OVCAR-4): 4050 nM
- GI50 (HOP-92; HOP-92, Non-small cell lung, 48 h exposure): 240 nM
- GI50 (HOP-92; HOP-92, non-small cell lung): 240 nM
- IC50 (HOP-92; HOP-92, Table 4, read-out: Comparative efficacy): 240 nM
- GI50 (KM12): 2650 nM
- GI50 (A549/ATCC): 2210 nM
- GI50 (CAKI-1; CAKI-1, Renal, 48 h exposure): 1200 nM
- IC50 (CAKI-1; CAKI-1, Table 4, read-out: Comparative efficacy): 1200 nM
- GI50 (U251): 3050 nM
- GI50 (NCI-H322M): 3700 nM
- GI50 (Leukemia cell lines; Leukemia, average of six to eight cell lines, read-out: Log10 GI50 (converted)): 2240 nM
- CC50 (Leukemia cell lines; Leukemia, average of six to eight cell lines, read-out: Log10 LC50 (converted)): ≥ 100000 nM
- GI50 (Leukemia cell lines; exposure period of at least 48 hrs, read-out: GI50, range over leukemia cell lines): 1660 to 3080 nM
- GI50 (MOLT-4): 2520 nM
- GI50 (SF-295): 2730 nM
- GI50 (SF-268): 2890 nM
- GI50 ([1]; Homo sapiens, sixty cell lines, nine panels, read-out: GI50 against sixty cell lines in nine cell panels): < 9000 nM
- Log10 TGI mean graph midpoint (MG_MID) ([1]; human tumour cell lines): −4.76
- in vitro cytotoxicity, in words ([1]; human tumour cell lines): significant cytotoxicity
- GI50 ([1]; human tumour cell lines, read-out: Log10 GI50 mean graph midpoint (MG_MID) (converted)): 2340 nM
- CC50 ([1]; human tumour cell lines, read-out: Log10 LC50 mean graph midpoint (MG_MID) (converted)): 87100 nM
- GI50 (MDA-MB-468): 2960 nM
- GI50 (NCI-H226): 2580 nM
- GI50 (MALME-3M): 5420 nM
- GI50 (SK-MEL-28): 4110 nM
- GI50 (UO-31): 1120 nM
- GI50 (Breast cancer cell lines; Breast, average of six to eight cell lines, read-out: Log10 GI50 (converted)): 2510 nM
- CC50 (Breast cancer cell lines; Breast, average of six to eight cell lines, read-out: Log10 LC50 (converted)): ≥ 100000 nM
- IC50 (Breast cancer cell lines; exposure period of at least 48 hrs, read-out: IC50, range over breast cell lines): 1900 to 3460 nM
- GI50 (IGROV1; IGROV1, Ovarian, 48 h exposure): 210 nM
- GI50 (IGROV1; IGROV1, ovarian): 210 nM
- IC50 (IGROV1; IGROV1, Table 4, read-out: Comparative efficacy): 210 nM
- GI50 (SN12C): 2880 nM
- GI50 (UACC-62): 2080 nM
- IC50 (MCF7; MCF7, MCF-7, Table 4, read-out: Comparative efficacy): 2020 nM
- GI50 (MCF7; MCF7, Breast, 48 h exposure): 2020 nM
- GI50 (MDA-MB-231/ATCC; Breast, 48 h exposure): 2550 nM
- IC50 (MDA-MB-231/ATCC; Table 4, read-out: Comparative efficacy): 2550 nM
- IC50 (HCT-116; HCT-116, HCT116, Table 4, read-out: Comparative efficacy): 1880 nM
- GI50 (HCT-116; HCT-116, Colon, 48 h exposure): 1880 nM
- GI50 (HCT-116; HCT-116, colon): 1880 nM
- GI50 ([2]; Ovarian, average of six to eight cell lines, read-out: Log10 GI50 (converted)): 1860 nM
- CC50 ([2]; Ovarian, average of six to eight cell lines, read-out: Log10 LC50 (converted)): 70800 nM
- GI50 ([2]; exposure period of at least 48 hrs, read-out: GI50, range over ovarian cell lines): 210 to 4050 nM
- GI50 (BT-549): 3460 nM
- GI50 (NCI-H522): 1970 nM
- GI50 (SF-539): 1660 nM
- GI50 (MDAMB-435): 2850 nM
- GI50 (HCT-15): 3450 nM
